From the NIST ThermoML archive (doi:10.1021/acs.jced.6b00855)
Numbers after ± are expanded uncertainties.

Experiment: refractive index (Na D-line) (dimensionless); wn = mass fraction of the nth substance listed
Conditions: 288.15 K, 100 kPa, Liquid, Standard Abbe refractometry

`[Br-].[Br-].[Ca+2]` [calcium bromide] + O showed a refractive index (w1 = 0.5794) of 1.4892 ± 0.0004.
`[Ca+2].[Cl-].[Cl-]` [calcium chloride] + O gave a refractive index (w1 = 0.4075) of 1.4428 ± 0.0004.
`[Br-].[Li+]` [lithium bromide] + O showed a refractive index (w1 = 0.5929) of 1.4744 ± 0.0004.
With `[Cl-].[Li+]` [lithium chloride] + O the refractive index (w1 = 0.4395) was 1.4343 ± 0.0004.
